Values belong to the compound of their own block, whether it stands above or below them.
Key:
[1] = biological target: T1, Glucocorticoid Receptor (GR) (Homo sapiens, UniProt P04150); assay: Cell based GR responsive luciferase reporter assay in HEK293/UASLuc/pBIND-GR cells; settings: ratio of highest RLU on the dose response curve to RLU in untreated wells, 48 hours
T1 construct: host or cells: HEK293 stably expressing human full length PRLR
T1 sequence (P04150 524-758 limits assumed): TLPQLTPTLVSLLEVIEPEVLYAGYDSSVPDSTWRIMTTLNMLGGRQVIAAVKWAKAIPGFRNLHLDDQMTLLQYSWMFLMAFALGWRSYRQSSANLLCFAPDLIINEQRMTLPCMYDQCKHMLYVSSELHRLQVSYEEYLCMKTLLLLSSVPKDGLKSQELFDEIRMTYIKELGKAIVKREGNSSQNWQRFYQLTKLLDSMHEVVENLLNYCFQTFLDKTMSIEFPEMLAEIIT

[2] = biological target: T1, Glucocorticoid Receptor (GR); assay: as above; settings: for EC50: HEK293/UASLuc/pBIND-GR cells, 48 hours; for EC50 values after spacer attachment relative to parent steroid: comparison
Text: A cell-based GR responsive luciferase reporter assay was used to test the GR agonist activity of compounds described herein. In this assay, the following materials were used.
To generate the assay cell line, HEK293 cells were co-transfected with the pBind-GR (Promega, Cat #E158A) and pGL4.35 [Luc2P/9xGAL4UAS/Hygro] (Promega, Cat #E137A) vectors. The pBind-GR vector expresses a fusion protein consisting of the yeast Gal4DNA-binding domain and the GR ligand binding domain, that can bind to the Gal4 upstream activation sequence (UAS) in the luciferase expression vector and induce luciferase expression following GR agonist binding. The cells were selected for at least 2 weeks in G418+ hygromycin. The resulting cell line is referred to as HEK293/UASLuc/pBIND-GR.
Three-fold serial dilutions of test compounds were prepared in 100% DMSO, transferred to fresh assay media, and added to the cells. […] The last well in the plate served as blank control containing only the assay media and 0.2% DMSO (untreated well) and was plotted as a continuation of the 3-fold serial dilution.
Forty-eight hours later, luciferase activity was determined after the addition of One-Glo™ reagent (Promega, Cat #E6130). Relative light units (RLUs) were measured on an Envision luminometer (PerkinElmer) and EC50 values were determined using a four-parameter logistic equation over a 10-point dose response curve (GraphPad Prism). The signal to noise (S/N) was determined by taking the ratio of the highest RLU on the dose response curve to the RLU in the untreated wells.

[3] = Plasma stability in human plasma; format: in vitro ADME; settings: 37° C.; for Percent Remaining (%) 1 h / Percent Remaining (%) 8 h / Percent Remaining (%) 24 h / Percent Remaining (%) […]: BQL: Below Quantitation Limit
Procedure: Plasma stability can be measured according to the following protocol.
Preheated 0.05 M sodium phosphate and 0.07 M NaCl buffer, pH 7.4: 14.505 g/L Na2HPO4_12H2O, 1.483 g/L NaH2PO4_2H2O and 4.095 g/L NaCl were dissolved in deionized water. The basic solution was then titrated with the phosphoric acid to pH 7.40 and stored refrigerated for up to 7 days. pH was checked on the day of experiment and adjusted if outside specification of 7.4+/−0.1.
Plasma preparation: frozen plasma were thawed by placing at 37° C. The plasma was centrifuged at 3,000 rpm for 8 minutes to remove clots, pipetted and the supernatant was pooled as the plasma to be used in the experiment. The pH of the plasma was checked and recorded and only used within the range of pH 7.4 to pH 8. If higher than pH 8, the plasma was discarded. The initial pH of the plasma was not adjusted to pH 7.4 with acid or by bubbling with CO2. By using a 5% CO2 incubator and PBS buffer, a pH of 7.4 was reached after a 4 hour equilibrium dialysis time. The plasma was put on ice until used.
Test compounds and reference compounds spiking solution. 0.5 mM test compounds spiking solution A: 10 μL of 10 mM test compounds stock solution was added to 190 μL DMSO. 0.02 mM spiking solution B: 40 μL of spiking solution A were added to 960 μL of 0.05 mM Sodium phosphate buffer with 0.5% BSA.
The plasma and spiking solution B were pre-warmed at 37° C. for 5 min. 10 μL of pre-warmed spiking solution B was added into the wells designated for all the time points (0, 0.25, 1, 8, 24 h). For 0-min, 400 μL of ACN containing 1S was added to the wells of 0-min plate and then 90 μL of plasma was added. 90 μL of pre-warmed plasma was added into the wells designated for the time points (0.25, 1, 8, 24 h), and start timing. At 0.25, 1, 8, 24 h, 400 μL of ACN containing IS was added to the wells of corresponding plates, respectively, to stop the reaction. After quenching, the plates were shaken on a vibrator (IKA, MTS 2/4) for 10 min (600 rpm/min) and then centrifuged at 5594 g for 15 min (Thermo Multifuge×3R). 50 μL of the supernatant from each well was transferred into a 96-well sample plate containing 50 μL of ultra pure water (Millipore, ZMQS50F01) for LC/MS analysis.

[4] = Solubility of payloads and linker-payloads; settings: aqueous DMSO (20%)

Structure (SMILES): CCCC1O[C@@H]2C[C@H]3[C@@H]4C[C@H](F)C5=CC(=O)C=C[C@]5(C)[C@@]4(F)[C@@H](O)C[C@]3(C)[C@]2(C(=O)CO)O1 (stereo in doubt) [Compound 100, (1S,2S,4R,8S,9S,11S,12R,13S,19S)-12,19-Difluoro-11-hydroxy-8-(2-hydroxyacetyl)-9,13-dimethyl-6-propyl-5,7-dioxapentacyclo[10.8.0.0^2,^9.0^4,^8.0^13,^18]icosa-14,17-dien-16-one]
S/N [1]: 14.5 | fold more potent than 1a (budesonide) ([2]; EC50 comparison): 5.6 fold | fold more potent than Dexamethasone ([2]; EC50 comparison): 5.9 fold | EC50 [2]: 0.0547 nM

Structure (SMILES): CCCC1O[C@@H]2C[C@H]3[C@@H]4CCC5=CC(=O)C=C[C@]5(C)[C@H]4[C@@H](O)C[C@]3(C)[C@]2(C(=O)COCNC(=O)CN)O1 (stereo partly drawn) [Compound 103a, 2-Amino-N-({2-[(1S,2S,4R,8S,9S,11S,12S,13R)-11-hydroxy-9,13-dimethyl-16-oxo-6-propyl-5,7-dioxapentacyclo[10.8.0.0^2,^9.0^4,^8.0^13,^18]icosa-14,17-dien-8-yl]-2-oxoethoxy}methyl)acetamide]
half-life at 2 µM [3]: 16.8 h | Percent Remaining (%) 0 h [3]: 100.00% | Percent Remaining (%) 1 h [3]: 96.48% | Percent Remaining (%) 8 h [3]: 78.87% | Percent Remaining (%) 24 h [3]: 38.03% | Percent Remaining (%) […] [3]: 107.04% | solubility (physchem): < 20 µg/mL | S/N [1]: 14.6 | EC50 [2]: 0.484 nM | EC50 values after spacer attachment relative to parent steroid [2]: comparable to 1a

Structure (SMILES): CCCC1O[C@@H]2C[C@H]3[C@@H]4C[C@H](F)C5=CC(=O)C=C[C@]5(C)[C@@]4(F)[C@@H](O)C[C@]3(C)[C@]2(C(=O)COCNC(=O)CN)O1 (stereo partly drawn) [Compound 103b, 2-Amino-N-({2-[(1S,2S,4R,8S,9S,11S,12R,13S,19S)-12,19-difluoro-11-hydroxy-9,13-dimethyl-16-oxo-6-propyl-5,7-dioxapentacyclo[10.8.0.0^2,^9.0^4,^8.0^13,^18]icosa-14,17-dien-8-yl]-2-oxoethoxy}methyl)acetamide]
solubility (physchem): < 20 µg/mL | S/N [1]: 16.6 | EC50 values after spacer attachment relative to parent steroid [2]: comparable to 100

Structure (SMILES): CCCC1O[C@@H]2C[C@H]3[C@@H]4C[C@H](F)C5=CC(=O)C=C[C@]5(C)[C@@]4(F)[C@@H](O)C[C@]3(C)[C@]2(C(=O)COC(=O)c2ccc(CN)cc2)O1 (some centres unmarked) [Compound 105a]
fold less potent than 100 ([2]; EC50 comparison after spacer attachment to 100, text): 2.7 fold

Structure (SMILES): CCCC1O[C@@H]2C[C@H]3[C@@H]4CCC5=CC(=O)C=C[C@]5(C)[C@H]4[C@@H](O)C[C@]3(C)[C@]2(C(=O)COCNC(=O)CNC(=O)OCc2ccc(NC(=O)[C@H](CCCNC(N)=O)NC(=O)[C@@H](NC(=O)CCOCCOCCOCCOCCNC(=O)CCC(=O)N3Cc4ccccc4C#Cc4ccccc43)C(C)C)cc2)O1 (some centres unmarked) [LP9]
solubility [4]: < 20 µg/mL

Structure (SMILES): CCCC1O[C@@H]2C[C@H]3[C@@H]4C[C@H](F)C5=CC(=O)C=C[C@]5(C)[C@@]4(F)[C@@H](O)C[C@]3(C)[C@]2(C(=O)COCNC(=O)CNC(=O)OCc2ccc(NC(=O)[C@H](CCCNC(N)=O)NC(=O)[C@@H](NC(=O)CCOCCOCCOCCOCCNC(=O)CCC(=O)N3Cc4ccccc4C#Cc4ccccc43)C(C)C)cc2)O1 (some centres unmarked) [LP10]
solubility [4]: < 20 µg/mL

half-life at 2 µM [3]: < 0.25 h | Percent Remaining (%) 0 h [3]: 100.00% | Percent Remaining (%) 1 h [3]: BQL | Percent Remaining (%) 8 h [3]: BQL | Percent Remaining (%) 24 h [3]: BQL | Percent Remaining (%) […] [3]: BQL
Structure (SMILES): CCN(CC)CCOC(=O)c1ccc(N)cc1 [Procaine]
